According to patent US10292992B2, “Selective high-affinity polydentate ligands and methods of making such” (LAWRENCE LIVERMORE NATIONAL SECURITY, LLC, priority 2008, dated 2019):

Legend:
HLA-DR10 protein = experiment: Surface plasmon resonance binding of SHALs to isolated HLA-DR10 protein; design: species or system human
Description: In certain embodiments, the binding affinities of the best SHALs can be estimated by mass spectrometry of the SHAL-target complexes, followed by a more accurate surface plasmon resonance (SPR) spectroscopy (Shuck (1997) Annu Rev Biophys Biomol Struct., 26: 541-566; Van Regenmortal (2001) Cell Mol Life Sci., 58: 794-800) measurement of the SHAL-target binding affinity using for example, the IASYS Plus or BiaCore instruments. In order to perform the SPR measurement, biotin can be added to the linker through a third functional group (as described above) and the SHAL can be bound to commercially available streptavidin coated chips. […] Experiments can be performed to test the selectivity of SHAL binding to targets in the presence of molecules related to the targets. Thus, for example, where the SHAL is directed to HLA-DR10, the SHAL can be evaluated for its ability to bind target molecules in the presence of Raji cell surface proteins extracted and separated by affinity chromatography. After treating the gel with the biotinylated SHAL and rinsing out excess unbound SHAL, the location of the bound SHAL can be detected by staining with Rhodamine tagged streptavidin.
Protein binding experiments were conducted using surface plasma resonance on a Biacore 3000 (Biacore, Piscataway, N.J.) at 25° C. A research grade streptavidin immobilized chip (SA chip, Biacore) was preconditioned and normalized according to the manufacturers instructions. Biotin labeled SHALs were dissolved in DMSO and diluted in 1.05×PBS (Biacore) to a final concentration of 1×PBS pH 7.4, 5% DMSO, to match the running buffer. These SHALs were injected over the flow cell to yield a surface density of 500-1000RU (response units). Biotin (50 μM E-Z Link Amine-PEO2-Biotin, Pierce) was injected over all cells for 1 minute at 20 μl/min as a block to reduce non-specific binding. One flow cell was used as a reference cell and a different SHAL was immobilized on each of the three other cells.
Experiments measuring the binding of HLA-DR10 to the SHALs were carried out at a flow rate of 30 μl/minute in PBS pH7.4 running buffer using all 4 flow cells. HLA-DR10 isolated from Raji cells (Rose et al. (1996) Cancer Immunol Immunother 43:26-30) was diluted in running buffer to a final concentration ranging from […] and a series of concentrations were run randomly in triplicate. Protein was injected for 3 minutes, allowed to dissociate for 5 minutes followed by regeneration of the surface using a 1 minute injection of 0.1% sodium dodecylsulfate (SDS) followed by a washing step with a 2 minute injection of running buffer. The data, which were double referenced by subtracting the blank reference surface and an average of 5 blank injections, were processed using the program SCRUBBER (University of Utah).
Using homology modeling, HLA-DR amino acid residues critical for Lym-1 binding were mapped on a 3-D model of the HLA-DR10ß subunit (Balhorn et al, (2007) Clin. Cancer Res., 13(Suppl. 18): S5621-S5628). Cavities within the Lym-1 epitopic surface of the protein were identified using SPHGEN (Kuntz et al. (1982) J. Mol Biol. 161: 269-288; Desjarlais et al. (1988) J. Med. Chem., 31: 722-729). After computational ligand docking for each of the cavities, a combination of NMR spectroscopy, surface plasmon resonance (BIAcore 3000; Biacore, Piscataway, N.J.) and competitive binding experiments were used to confirm ligand binding to HLA-DR10 protein. […]

Raji xenografts = experiment: Efficacy in mice with Raji xenografts; assay type: in vivo, athymic Balb/c nu/nu mice
Description: (§1) Seven- to nine-week old female, athymic Balb/c nu/nu mice (Harlan Sprague Dawley, Inc., Frederick, Md.) were maintained according to University of California animal care guidelines under pathogen-free conditions and on a normal ad libitum diet. Raji or Jurkat's cells harvested in log phase and having >95% viability were implanted (6×10^6 cells) subcutaneously in the lower abdomen 3-4 days after the mice were irradiated (400 cGy) to suppress xenograft rejection. When xenografts reached 20-500 mm3 by caliper measurement, the mice were sorted by xenograft volume into 4 groups: SHAL-treated mice with Raji xenografts, SHAL-treated mice with Jurkat's xenografts, untreated mice with Raji xenografts or untreated mice with Jurkat's xenografts. Each mouse was injected with 100 μl of PBS or 100 ng DOTA-chelated tridentate SHAL i.p. on days 0, 7 and 14. Xenograft volume and survival were monitored for ≥84 days. The mice were also weighed 2-3 times each week for 4 weeks then weekly. Blood counts were measured prior to each SHAL or PBS dose and weekly for 4 weeks after the final dose using a Z Series Coulter Counter (Beckman Coulter Inc., Hialeah, Fla.) and a phase contrast microscope (Zeiss, Jena, Germany).
(§2) Xenograft volumes were calculated by the formula for hemiellipsoids (DeNardo et al. (1997) Clin. Cancer Res. 3: 71-79). […] If a xenograft became >2000 mm3, the mouse was euthanized in accordance with University of California animal care guidelines and scored as a disease-related death.
(§3) Initial analysis compared response rates by exact tests and survival times by log-rank tests for untreated Raji and Jurkat's mice and found no significant differences, so these groups were pooled for subsequent analysis. Response rates for treated Raji, treated Jurkat's and untreated mice were compared by x^2 and exact tests. Survival times were censored at 84 days for mice who had not died or been euthanized because of tumor growth before that time. Times were summarized descriptively by Kaplan-Meier curves and median survival and 95% confidence limits were obtained by the product-limit estimate. The two treated groups were compared to the untreated using a log-rank test for homogeneity across groups, followed by a proportional hazards model to estimate the effect of treatment compared to no treatment. Analyses were carried out using SAS/SAT® software (SAS Institute, Inc. SAS/STAT Version 9.0. 2004. Cary, N.C.: SAS Institute). All tests were two-sided at level 0.05.

Jurkat's xenografts = experiment: Efficacy in mice with Jurkat's xenografts; assay type: in vivo, athymic Balb/c nu/nu mice
Description: as §1, §2, §3

[1] = 100 ng DOTA-chelated tridentate SHAL i.p. days 0, 7 and 14
[2] = 100 ng SHAL i.p. once weekly for 3 consecutive weeks

Row | Compound | binding to isolated HLA-DR10 (in words) (HLA-DR10 protein) | Kd (HLA-DR10 protein; biotinylated versions of the SHALs immobilized on streptavidin chip, HLA-DR10 isolated from Raji cells) [nM] | SHAL binding to HLA-DR10 on Lym-1 addition (HLA-DR10 protein; isolated or recombinant HLA-DR10 protein) | ORR (overall response rate) (Raji xenografts; [1]) [%] | Cure (Raji xenografts; 100 ng DOTA-chelated tridentate SHAL i.p. days 0, 7 and 14, censored at 84 days) [%] | overall survival (FIG. 31) (Raji xenografts; [2]) | median survival time (Raji xenografts; 100 ng SHAL i.p. weekly x3, censored at 84 days) | xenograft response in one mouse (FIG. 30) (Raji xenografts; by three weeks after the initial 100 ng dose i.p.) | persistence of cures (Raji xenografts; cures at 84 days) | reduction in hazard of death (Raji xenografts; treated Raji mice compared to untreated and treated Jurkat's mice, proportional hazards model) [%] | time at which regression began after initial SHAL treatment (Raji xenografts; treated Raji xenografts) [days] | time to complete remission after initial SHAL treatment (Raji xenografts; treated Raji xenografts) [days] | Cure (Jurkat's xenografts; [1]) [%] | ORR (overall response rate) (Jurkat's xenografts; [1]) [%] | longest survival (FIG. 31) (Jurkat's xenografts; [2]) [days] | effect of SHAL treatment on Jurkat's xenografts (Jurkat's xenografts; mouse, in vivo) | median survival time (Jurkat's xenografts; treated mice with Jurkat's xenografts) [days]
1 | CC(=O)NC(CCCNC(=N)N)C(=O)NC(CCCNC(=N)N)C(=O)NC(CCCNC(=N)N)C(=O)NC(CCCNC(=N)N)C(=O)NC(CCCNC(=N)N)C(=O)NC(CCCNC(=N)N)C(=O)NCCCCC(NC(=O)C(CCCCNC(=O)COCCOCCNC(=O)COCCOCCNC(=O)COCCOCCNC(=O)C(CCCCNC(=O)COCCOCCNC(=O)c1ccc(NC(=O)C(CCCNC(=N)N)NC(=O)c2ccccc2)cc1)NC(=O)C(NS(=O)(=O)c1ccc(N=Nc2ccc(N(C)C)cc2)cc1)C(C)C)NC(=O)COCCOCCNC(=O)COCCOCCNC(=O)COCCOCCNC(=O)C(CCCCNC(=O)COCCOCCNC(=O)c1ccc(NC(=O)C(CCCNC(=N)N)NC(=O)c2ccccc2)cc1)NC(=O)C(NS(=O)(=O)c1ccc(N=Nc2ccc(N(C)C)cc2)cc1)C(C)C)C(=O)NC(CCCCNC(=O)CN1CCN(CC(=O)O)CCN(CC(=O)O)CCN(CC(=O)O)CC1)C(=O)O (stereo not drawn) [(DvLPBaPPP)2LArg6AcLLDo] | did not interfere with SHAL binding to the protein | ~34 | – | – | – | – | – | – | – | – | – | – | – | – | – | – | –
2 | CC(C)C(NS(=O)(=O)c1ccc(N=Nc2ccc(N(C)C)cc2)cc1)C(=O)NCCOCCOCC(=O)NC(CCCCNC(=O)C(CCCCNC(=O)CC(=O)Nc1ccccc1Oc1ncc(C(F)(F)F)cc1Cl)NC(=O)COCCOCCNC(=O)c1ccc(N2CCN(Cc3ccc(Cl)cc3)CC2)c([N+](=O)[O-])c1)C(=O)NCCOCCOCC(=O)NC(CCCCNC(=O)CN1CCN(CC(=O)O)CCN(CC(=O)O)CCN(CC(=O)O)CC1)C(=O)O (stereo not drawn) [tridentate SHAL] | better than nanomolar | – | blocked by Lym-1 addition | 77 | 69 | longest survival | not estimable | completely regressed | persisted over a 210-day observation time | 85 | ~7 | ~30 | 0 | 0 | ≤ 56 | not affected | 21
